Assay results: patent publication US12312292B2, “Long chain alkyl esteramine lipid compound, preparation method therefor and application thereof in nucleic acid delivery” (RinuaGene Biotechnology Co., Ltd., priority 2022, dated 2025)

How the values were obtained:
[1] = mRNA-LNP encapsulation: particle size, PDI and encapsulation rate of LNP; assay type: physicochemical
Procedure: The mRNA stock solution was dispersed in 20 mM acetic acid solution (pH 5.0) to a final concentration of 200 μg/mL (aqueous phase). A fat mixture (oil phase) was obtained by mixing under a molar ratio of the exemplary compound:cholesterol:DSPC:DMG-PEG2000=50:38.5:10:1.5. The flow rate of the aqueous phase and the oil phase was controlled by T mixed flow, and the mRNA and lipid mixture were mixed under the volume ratio of 3:1 to obtain LNP-encapsulated mRNA. The encapsulated LNP was diluted 10-fold with buffer, then concentrated by ultrafiltration, and the dilute was displaced, and finally the LNP was concentrated to mRNA being 200 µg/mL, and the pH of the LNP was adjusted to about 7-8. Finally, the Ribogreen kit and 10% OTG were used as demulsifiers to detect the total content of mRNA and the content of […], and the encapsulation rate of LNP was calculated. The LNP final product was diluted 10-fold with diluent, added 1 mL into a particle size cell, and placed on the Malvern ZetaSizer instrument to detect the particle size and PDI of LNP.

luciferase mRNA = assay: Detection of reporter gene (luciferase mRNA) expression in mice in vivo; design: species or system BALB/c female mice; settings: LNP-delivered luciferase mRNA, quadriceps muscle injection, IVIS 24 h after injection; dose (5 or 14 μg mRNA) not given
Procedure: The prepared LNP-encapsulated mRNA solution was diluted with PBS buffer to obtain the solution for injection. BALB/c female mice at about 20 g were injected with injection solution at the quadriceps muscle site of mice with an insulin syringe, and each mouse was injected with 50 μL. Two doses were designed: one dose of “5 μg mRNA per 50 μL of injection solution” and the other dose of “14 μg mRNA per 50 μL of injection solution”. BALB/c female mice at about 20 g are injected with PBS buffer at the quadriceps muscle site of mice with an insulin syringe, and each mouse was injected with 50 μL.
After the mice were injected for 24 h, in vivo expression of Luciferase was detected with Perkinelmer's IVIS. The substrate was D-luciferin Sodium salt (GOLDBIO, LUCNA-1G), which was formulated into a concentration of 15 mg/mL with normal saline, filtered and sterilized with a 0.22 μm filter membrane, and stored at −20° C. in aliquots protected from light. Before imaging, each mouse at about 20 g was intraperitoneally injected with 200 μL of substrate solution for 10-20 minutes, and then was anesthetized with isoflurane gas and placed prone on the imaging plate to detect the fluorescence of the animal in vivo, and the results are shown in Table 2.

[2] = In vivo expression distribution analysis of delivered luciferase mRNA (RT-PCR in tissues); design: species or system C57BL/6J mice; settings: single intramuscular injection 50 μg; for Exposure in tissues and organs, from high to low: delivered luciferase mRNA, 2 h-336 h, RT-PCR; for Level (distribution) of delivered mRNA in the stomach: compared with SM-102
Procedure: In order to investigate the distribution features of lipid-delivering mRNA in vivo, we analyzed the distribution features of the reporter luciferase mRNA of the compounds of the present invention in C57BL/6J mice after administration by a single intramuscular injection. The experimental 10 C57BL/6J mice were enrolled, male and female, each administered 50 μg, with SM102 as the control.
Animals in the negative control group were collected at 2 h and 336 h after administration, and animals in the test group were collected at 2 h, 6 h, 24 h, 48 h, 72 h, 120 h, 168 h, and 336 h after administration whole blood, bone marrow, liver, spleen, heart, kidney, inguinal lymph nodes, mesenteric lymph nodes, spleen, brain, stomach, small intestine, non-injection site muscle, injection site muscle tissue, etc. The RNA content in the samples at each time point was detected by RT-PCR, and the lower limit of quantification of the method was […] to reflect the distribution features in C57BL/6J mice.

BALB/c female mice = assay: Acute toxicity analysis of lipid molecules (cationic lipid LNP) in BALB/c female mice; settings: blood 24 h after injection, Ave(SD)
SD rat = assay: Liver injury toxicity analysis of lipid molecules in SD rat (serum ALT and AST); assay type: in vivo; settings: SD rats, 3 mg/kg mRNA encoding Luciferase via tail vein, serum 24 hours after injection; compared with SM102 (FIGS. 4A, 4B)
From the text: In order to further investigate the hepatic injury toxicity of exemplary compounds, we analyze the effect of the compounds of the present invention on serum alanine aminotransferase (ALT) and […] (AST) levels. The experimental 30 SD rats (15 females+15 males, purchased from Zhejiang Weitong Lihua Laboratory Animal Technology Co., Ltd.) were randomly divided into three groups, namely negative control group (PBS), SM102 group, and compound 2 group, each group of […]. According to body weight, each rat was injected with 3 mg/kg of mRNA encoding Luciferase through the tail vein, fasted overnight with supplying water, and whole blood was collected 24 hours after injection, and serum was isolated. The concentration of ALT and AST in the serum of each rat was detected with a fully automated biochemical analyzer, and the test results are shown in FIGS. 4A and 4B.

[3] = LNP of compound:cholesterol:DSPC:DMG-PEG2000=50:38.5:10:1.5 with mRNA, Malvern ZetaSizer

Row | SMILES | PDI [1, 3] | Particle size (nm) [1, 3] [nm] | Encapsulation rate ([1]; LNP-encapsulated mRNA, Ribogreen kit) [%] | Average fluorescence intensity (luciferase mRNA) [P/s/cm^2/sr] | Exposure in tissues and organs, from high to low [2] | Alanine aminotransferase (BALB/c female mice; high dose group, 150 μg LNP/pc) [U/L] | Alkaline phosphatase (ALP) (BALB/c female mice; high dose group, 150 μg LNP/pc) [U/L] | Aspartate aminotransferase (BALB/c female mice; high dose group, 150 μg LNP/pc) [U/L] | Creatinine (BALB/c female mice; high dose group, 150 μg LNP/pc) [µmol/L] | γ-Glutamyltransferase (GGT) (BALB/c female mice; high dose group, 150 μg LNP/pc) | Alanine aminotransferase (BALB/c female mice; low dose group, 50 μg/pc) | Alkaline phosphatase (ALP) (BALB/c female mice; low dose group, 50 μg/pc) [U/L] | Aspartate aminotransferase (BALB/c female mice; low dose group, 50 μg/pc) [U/L] | Creatinine (BALB/c female mice; low dose group, 50 μg/pc) [µmol/L] | γ-Glutamyltransferase (GGT) (BALB/c female mice; low dose group, 50 μg/pc) | Total bilirubin (TBIL) (BALB/c female mice; high dose group, 150 μg LNP/pc) | Total bilirubin (TBIL) (BALB/c female mice; low dose group, 50 μg/pc) | Elevation effect on serum ALT and AST (SD rat) | Level (distribution) of delivered mRNA in the stomach [2] | Level (distribution) of delivered mRNA in the stomach ([2]; listed as compound 7)
1 | CCCCCCCCCCCOC(=O)CCCCCN(CCO)CCCCCCCC(=O)OC(CCCCCCCC)CCCCCCCC [SM102, reference compound] | 0.1296 | 92.16 | 95 | 1.112E+06 | inguinal lymph nodes, injection site muscles, whole blood, non-injection site muscles, spleen, bone marrow, heart, mesenteric lymph nodes, liver, kidney, small intestine, and brain | 56.18 | 116.88 | 145.96 | 12.6 | 0.32 (0.22) U/L | 36.04 (2.93) U/L | 131.7 | 121.4 | 14.6 | 0.41 (0.24) U/L |  |  |  |  | 
2 | CCCCCCCCCCCOC(=O)CCCCCN(CCCCCCO)CCCCCCCC(=O)OC(CCCCCCCC)CCCCCCCC [Example 2] |  |  |  | 1.144E+06 | injection site muscle, inguinal lymph nodes, whole blood, spleen, non-injection site muscle, bone marrow, heart, liver, mesenteric lymph nodes, kidney, small intestine and brain | 41.54 | 111.86 | 124.48 | 12.6 | 0.20 (0.18) U/L | 35.32 (2.51) U/L | 113.3 | 111.74 | 12.6 | 0.40 (0.37) U/L | 1.25 | 1.22 (0.20) | significantly lower than these of compound SM102 |  | 
3 | CCCCCCCCCCCOC(=O)CCCCCN(CCCCCCCC(=O)OC(CCCCCCCC)CCCCCCCC)CC1(O)CC1 [Example 13] |  |  |  | 2.78E+05 | inguinal lymph nodes, injection site muscles, non-injection site muscles, whole blood, spleen, bone marrow, mesenteric lymph nodes, heart, liver, kidneys, stomach, small intestine and brain | 39.99 | 109.84 | 126.77 | 12.4 | 0.18 (0.18) U/L | 36.19 (3.01) U/L | 111.74 | 110.27 | 13.5 | 0.38 (0.41) U/L | 1.34 | 1.18 (0.23) |  | relatively higher level | 
4 | CCCCCCCCCCCOC(=O)CCCCCN(CCCCCCCCCCCCO)CCCCCCCC(=O)OC(CCCCCCCC)CCCCCCCC [Example 7] |  |  |  | 4.73E+05 | injection site muscle, inguinal lymph nodes, whole blood, spleen, non-injection site muscle, bone marrow, heart, liver, mesenteric lymph nodes, kidney, small intestine and brain | 39.92 | 103.8 | 138.44 | 12.2 | 0.22 (0.04) U/L | 33.56 (5.17) U/L | 107.58 | 109.54 | 13.6 | 0.06 (0.12) U/L | 1.35 | 1.18 (0.16) |  | higher distribution | relatively higher level
